Data: US10550144B2, “6-aryl-9-glycosylpurines and use thereof” (UNIVERZITA PALACKEHO V OLOMOUCI, priority 2014, dated 2020)

Assays:
Herpes simplex virus = details: Masakatsu et al. 1977; cited from earlier work
Vaccinia virus = details: Masakatsu et al. 1977, cited from earlier work
[1] = system: Arabidopsis wild-type plants (Col-0) detached leaves, gene transcription; assay: Differential gene expression study (RNA sequencing) in detached senescent leaves; type: in vivo; details: 10 μM
Method: For isolation of total RNA, Arabidopsis wild-type plants (Col-0) were used, which were either treated with 3MeOBAPA or left untreated. Wild-type plants were grown in soil for 30 days, and then leaves of similar size and chlorophyll content were cut and immediately used for the treatment. At least 20 detached leaves were submerged in 1×MS medium supplemented with 10 μM 3MeOBAPA. Control samples were mock treated with DMSO only. After incubation for 6 h or 48 h in the dark, detached leaves were frozen in liquid nitrogen and used for RNA isolation; 150 mg of liquid nitrogen-ground material was used per isolation. cDNA sequencing libraries were prepared with the Illumina TruSeq Stranded mRNA LT Sample Prep Kit (Illumina, San Diego, Calif.) according to standard Illumina's protocols and sequenced on HiSeq 2500 apparatus (50 bp single-end reads).
To gain insight into the molecular mechanism of 3MeOBAPA action in Arabidopsis we decided to analyze the gene expression patterns via comparison of mock (DMSO)-treated plants with those obtained after i) short time treatment with 3MeOBAPA (6 h) and ii) long time treatment (48 h). This comparison leads to identification of group of genes with similar kinetic of expression and helps to understand possible mechanism of regulation. For data analysis, we performed ab initio method where sequencing reads were mapped to the reference genome.

[2] = system: Triticum aestivum cv. Hereward detached leaf segments; assay: Senescence bioassay on detached wheat leaf segments (chlorophyll retention); type: in vivo; details: 96 h incubation in the dark at 25° C.; tested 10^−8 M to 10^−4 M
Method: Seeds of winter wheat, Triticum aestivum cv. Hereward, were washed under running water for 24 hours and then sown on vermiculite soaked with Knop's solution. They were placed in the growth chamber at 25° C. with a 16/8 h light period at 50 μmol·m^−2·s^−1. After 7 days, the first leaf was fully developed and the second leaf had started to grow. A tip section of the first leaf, approximately 35 mm long, was removed from 5 seedlings and trimmed slightly to a combined weight of 100 mg. The basal ends of the five leaf tips were placed in the wells of a microtiter polystyrene plate containing 150 μL of the tested derivative solution each. The entire plate was inserted into a plastic box lined with paper tissues soaked in distilled water to prevent leaf sections from drying out. After 96 h incubation in the dark at 25° C., the leaves were removed and chlorophyll extracted by heating at 80° C. for 10 min in 5 mL of 80% ethanol (v/v). The sample volume was then restored to 5 mL by the addition of 80% ethanol (v/v). The absorbance of the extract was recorded at 665 nm. In addition, chlorophyll extracts from fresh leaves and leaf tips incubated in deionised water were measured. The results are means of five replicates and the entire test was repeated twice. […] The compounds to be tested were dissolved in dimethylsulfoxide (DMSO) and the solution brought up to 10^−3M with distilled water. […] The activity obtained for 10^−4 M of BAP was postulated as 100%.

Cc1cccc(CNc2ncnc3c2ncn3C2OC(CO)C(O)C2O)c1C (centres unmarked) [2,3-dimethylbenzyl]
activity in killing Herpes simplex virus (Herpes simplex virus): No effect
activity in killing Vaccinia virus (Vaccinia virus): No effect

Cc1ccc(C)c(CNc2ncnc3c2ncn3C2OC(CO)C(O)C2O)c1 (centres unmarked) [2,5-dimethylbenzyl]
activity against Vaccinia virus, strain IHD (Vaccinia virus): low activity

Cc1ccccc1CNc1ncnc2c1ncn2[C@@H]1O[C@H](CO)[C@@H](O)[C@@H]1O [2-methylbenzyl]
activity in killing Herpes simplex virus (Herpes simplex virus): No effect
activity in killing Vaccinia virus (Vaccinia virus): No effect

Cc1ccc(CNc2ncnc3c2ncn3[C@@H]2O[C@H](CO)[C@@H](O)[C@@H]2O)cc1C [3,4-dimethylbenzyl]
activity in killing Herpes simplex virus (Herpes simplex virus): No effect
activity in killing Vaccinia virus (Vaccinia virus): No effect

OC[C@H]1O[C@@H](n2cnc3c(NCc4ccccc4)ncnc32)[C@@H](O)[C@@H]1O [6-benzylamino-9-β-D-arabinofuranosylpurine]
activity in killing Herpes simplex virus (Herpes simplex virus): No effect
activity in killing Vaccinia virus (Vaccinia virus): No effect

Cc1cccc(C)c1CNc1ncnc2c1ncn2[C@@H]1O[C@H](CO)[C@@H](O)[C@@H]1O [2,6-dimethylbenzyl]
activity in killing Herpes simplex virus (Herpes simplex virus): No effect
activity in killing Vaccinia virus (Vaccinia virus): No effect

COc1cccc(CNc2ncnc3c2ncn3[C@@H]2O[C@H](CO)[C@@H](O)[C@@H]2O)c1 [6-(3-methoxybenzylamino)-9-β-D-arabinofuranosylpurine]
logFC AT1G10585 Basic helix-loop-helix (bHLH) DNA-binding superfamily protein ([1]; 6 h): 0.38
logFC AT1G15540 2-oxoglutarate and Fe(II)-dependent oxygenase superfamily protein ([1]; 6 h): 0.57
logFC AT1G19670 Chlorophyllase-1 (CLH1) ([1]; 6 h): 0.63
logFC AT1G59860 17.6 kDa class I heat shock protein 1 (HSP17.6A) ([1]; 6 h): 0.48
logFC AT1G76640 Calcium-binding EF-hand family protein (CML39) ([1]; 6 h): 0.78
logFC AT2G02010 Glutamate decarboxylase 4 (GAD4) ([1]; 6 h): 0.55
logFC AT2G18150 Peroxidase 15 (PER15) ([1]; 6 h): 0.68
logFC AT2G21900 WRKY transcription factor 59 (WRKY59) ([1]; 6 h): 0.54
logFC AT2G26695 Ran BP2/NZF zinc finger-like superfamily protein ([1]; 6 h): 0.50
logFC AT2G28210 Alpha carbonic anhydrase 2 (ATACA2) ([1]; 6 h): 0.85
logFC AT2G37430 Zinc finger protein ZAT11 ([1]; 6 h): 0.42
logFC AT2G39030 L-ornithine N5-acetyltransferase (NATA1) ([1]; 6 h): 0.56
logFC AT2G47040 Pectin methylesterase Vanguard1 (VGD1) ([1]; 6 h): 2.80
logFC AT3G05610 Pectinesterase/pectinesterase inhibitor 21 (PME21) ([1]; 6 h): 1.80
logFC AT3G09340 Transmembrane amino acid transporter family protein ([1]; 6 h): 0.55
logFC AT3G11340 UDP-Glycosyltransferase superfamily protein ([1]; 6 h): 0.51
logFC AT3G13400 SKU5 similar 13 (SKS13) ([1]; 6 h): 0.82
logFC AT3G28153 Transposable element gene ([1]; 6 h): 0.92
logFC AT3G28155 ARM repeat superfamily protein ([1]; 6 h): 0.59
logFC AT3G44830 Putative phospholipid:diacylglycerol acyltransferase 2 (PDAT2) ([1]; 6 h): 0.38
logFC AT4G01390 TRAF-like family protein ([1]; 6 h): 0.79
logFC AT4G21830 Peptide methionine sulfoxide reductase B7 (MSRB7) ([1]; 6 h): 0.55
logFC AT4G22030 F-box domain, cyclin-like, F-box domain, Skp2-like protein ([1]; 6 h): 0.41
logFC AT4G22620 SAUR-like auxin-responsive family protein ([1]; 6 h): 0.46
logFC AT4G24350 Phosphorylase superfamily protein ([1]; 6 h): 0.64
logFC AT4G26010 Peroxidase 44 (PER44) ([1]; 6 h): 0.53
logFC AT4G31950 Cytochrome P450 82C3 (CYP82C3) ([1]; 6 h): 0.37
logFC AT4G37780 Myb domain protein 87 (MYB87) ([1]; 6 h): 0.41
logFC AT4G39320 Microtubule-associated protein-related ([1]; 6 h): 0.45
logFC AT5G03610 GDSL esterase/lipase ([1]; 6 h): 0.42
logFC AT5G52670 Copper transport family protein ([1]; 6 h): 0.57
logFC AT5G62720 Integral membrane HPP family protein ([1]; 6 h): 0.44
logFC AT5G63270 RPM1-interacting protein 4 (RIN4) family protein ([1]; 6 h): 0.56
logFC AT2G26695 Ran BP2/NZF zinc finger-like superfamily protein ([1]; 48 h): 5.90
logFC AT3G11340 UDP-Glycosyltransferase superfamily protein ([1]; 48 h): 6.60
logFC AT3G28153 Transposable element gene ([1]; 48 h): 5.70
number of downregulated genes (P≤0.05) ([1]; long time treatment (48 h) vs mock (DMSO)): 7 095 genes
maximum effective concentration [2]: 10^−4 mol · l^−1

Cc1ccc(CNc2ncnc3c2ncn3C2OC(CO)C(O)C2O)c(C)c1 (centres unmarked) [2,4-dimethylbenzyl]
activity against Vaccinia virus, strain IHD (Vaccinia virus): low activity
